One experiment has as its target hβ2 adrenergic receptor (Homo sapiens (Human), UniProt P07550). Nature of the experiment: Assay for determining adrenergic receptor agonist potency (cAMP Flashplate, HEK-293 cells). The format is cell-based. The following applies: data rounded to nearest 1 nM. As to the method:
The cell monolayer was lifted with 2 mM EDTA in PBS. Cells were pelleted by centrifugation at 1,000 rpm, and cell pellets were either stored frozen at −80° C. or membranes were prepared immediately for use. cAMP assays were performed in a radioimmunoassay format using the Flashplate Adenylyl Cyclase Activation Assay System with [^125I]-cAMP (NEN SMP004, PerkinElmer Life Sciences Inc., Boston, Mass.), according to the manufacturers instructions. […] Cells were rinsed with PBS and detached in dPBS (Dulbecco's Phosphate Buffered Saline, without CaCl2 and MgCl2) containing 2 mM EDTA or Trypsin-EDTA solution (0.05% trypsin/0.53 mM EDTA). After counting cells in Coulter cell counter, cells were pelleted by centrifugation at 1,000 rpm and re-suspended in stimulation buffer containing TBMX (PerkinElmer Kit) pre-warmed to room temperature to a concentration of 1.6×10^6 to 2.8×10^6 cells/mL. About 40,000 to 80,000 cells per well were used in this assay. […] Reactions were incubated for 10 min at 37° C. and stopped by adding 100 μL of cold detection buffer containing [^125I]-cAMP (NEN SMP004, PerkinElmer Life Sciences, Boston, Mass.). […] Data were analyzed by nonlinear regression analysis with the GraphPad Prism Software package (GraphPad Software, Inc., San Diego, Calif.) with the sigmoidal equation. The Cheng-Prusoff equation (Cheng Y, and Prusoff W H., Biochemical Pharmacology, 1973, 22, 23, 3099-108) was used to calculate the EC50 values.

The next experiment concerns the target hM3 muscarinic receptor (Homo sapiens (Human), UniProt P20309). Nature of the experiment: Radioligand binding assay for muscarinic receptors ([3H]-NMS displacement, CHO cell membranes). As to the method:
The cells were grown in a 5% CO2, 37° C. incubator and lifted with 2 mM EDTA in dPBS. Cells were collected by 5 minute centrifugation at 650×g, and cell pellets were either stored frozen at −80° C. or membranes were prepared immediately for use. For membrane preparation, cell pellets were resuspended in lysis buffer and homogenized with a Polytron PT-2100 tissue disrupter (Kinematica AG; 20 seconds×2 bursts). Crude membranes were centrifuged at 40,000×g for 15 minutes at 4° C. The membrane pellet was then resuspended with re-suspension buffer and homogenized again with the Polytron tissue disrupter. The protein concentration of the membrane suspension was determined by the method described in Lowry et al., 1951, […], 193, 265. All membranes were stored frozen in aliquots at −80° C. or used immediately. […] The membranes were briefly homogenized using a Polytron tissue disruptor (10 seconds) prior to assay plate addition. […] The test compounds were initially dissolved to a concentration of 400 μM in dilution buffer and then serially diluted 5× with dilution buffer to final concentrations ranging from 10 μM to […]. The order of addition and volumes added to the assay plates were as follows: 25 μL radioligand, 25 μL diluted test compound, and 50 μL membranes. Assay plates were incubated for 6 hours at 37° C. […] Filter plates were rinsed three times with wash buffer (10 mM HEPES) to remove unbound radioactivity. The plates were then air-dried and 50 μL Microscint-20 liquid scintillation fluid (PerkinElmer, Inc.) were added to each well. The plates were then counted in a PerkinElmer Topcount liquid scintillation counter (PerkinElmer, Inc.). Binding data were analyzed by nonlinear regression analysis with the GraphPad Prism Software package (GraphPad Software, Inc., San Diego, Calif.) using the one-site competition model. […] These summary statistics were then converted back to K; values for data reporting.

Experiment [1] has as its system MCh-induced bronchoconstriction. Nature of the experiment: Einthoven assay: bronchoprotection against methacholine (MCh)-induced bronchoconstriction. The following applies: for inhibition in vivo at 0.1 mg: inhaled or nasal, read-out: Broncho. at 24 h. The format is in vivo, rat. As to the method: This assay measures the ability of a test compound to provide bronchoprotection against methacholine (MCh)-induced bronchoconstriction in a rat. Male Sprague-Dawley rats (Harlan, Indianapolis, Ind.), weighing between 200 g and 350 g, were used for all studies. Test compound or vehicle (sterile deionized water) were dosed by inhalation (1H) over a 10 min period in a pie shaped inhalation chamber (R+S Molds, San Carlos, Calif.) using 5 mL of dosing solution. […] Rats were dosed with 100 μg of test compound unless otherwise indicated. At predetermined time points, rats were anesthetized with an intraperitoneal (IP) injection of 120 mg/kg inactin (thiobutabarbital). A supplemental dose (40 mg/kg, IP) was administered if the animal responded to physical stimuli (e.g. toe pinch). The surgical site was shaved and a 1-2 cm midline incision of the ventral aspect of the neck was made. The jugular vein was isolated and cannulated with a saline-filled polyethylene catheter (PE-50) to allow IV infusion of MCh. Trachea was dissected free and cannulated with a 14G needle (#NE-014, Small Parts, Miami Lakes, Fla.). After placement of the tracheal cannula, each rat was ventilated using a respirator (Model 683, Harvard Apparatus, Inc., MA) set at a stroke volume of 1 mL/100 g body weight (but not exceeding 2.5 mL volume) and a rate of 90 strokes per minute. A T-connector was placed along the respirator expiratory tubing to allow for measurement of changes in ventilation pressure (VP) using a Biopac transducer that was connected to a Biopac […]) pre-amplifier. Body temperature was maintained at 37° C. using a heating pad. Changes in VP were recorded using the Acknowledge Data Collection Software (Santa Barbara, Calif.). Baseline values were collected for at least 2.5 min. Rats were then challenged with non-cumulative intravenous (IV) infusions of 40 and 80 μg/kg MCh. MCh was infused intravenously for 2.5 minutes from a syringe pump (sp210iw, World Precision Instruments, Inc., Sarasota, Fla.) at a rate of 2 mL/kg/min, with a 2 minute interval between the two doses of MCh. Changes in ventilation pressure (cm H2O) in treated animals are expressed as % inhibition of MCh response relative to control animals. Other bronchoconstrictors, such as histamine and acetylcholine, can be used in place of MCh in this assay. Additionally, guinea pigs can be used instead of rats. […] Inhibition greater than or equal to 30 percent at 24 h is indicative of a long duration of action.

Setting [2] is: rat, 100 μg by inhalation, 24 h after administration.
Setting [3] is: hM3 Muscarinic Receptor Binding, data rounded to nearest 0.1 nM.

Counter-ions that a name gives are not always drawn. Like-named read-outs stand apart in the source and are kept apart here. Bounds are passed on as bounds.

Chain of hβ2 adrenergic receptor (P07550 whole entry): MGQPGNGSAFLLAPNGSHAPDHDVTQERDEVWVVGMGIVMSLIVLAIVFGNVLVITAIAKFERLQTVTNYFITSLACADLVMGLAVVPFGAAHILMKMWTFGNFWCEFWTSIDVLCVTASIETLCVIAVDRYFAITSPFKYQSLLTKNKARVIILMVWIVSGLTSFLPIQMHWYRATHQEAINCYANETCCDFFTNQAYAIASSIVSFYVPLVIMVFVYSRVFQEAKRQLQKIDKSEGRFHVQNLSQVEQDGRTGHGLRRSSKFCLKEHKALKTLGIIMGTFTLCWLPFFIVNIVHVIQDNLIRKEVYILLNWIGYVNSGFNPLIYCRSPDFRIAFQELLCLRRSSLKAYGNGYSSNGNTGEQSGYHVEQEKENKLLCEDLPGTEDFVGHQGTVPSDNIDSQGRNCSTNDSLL
Chain of hM3 muscarinic receptor (P20309 whole entry): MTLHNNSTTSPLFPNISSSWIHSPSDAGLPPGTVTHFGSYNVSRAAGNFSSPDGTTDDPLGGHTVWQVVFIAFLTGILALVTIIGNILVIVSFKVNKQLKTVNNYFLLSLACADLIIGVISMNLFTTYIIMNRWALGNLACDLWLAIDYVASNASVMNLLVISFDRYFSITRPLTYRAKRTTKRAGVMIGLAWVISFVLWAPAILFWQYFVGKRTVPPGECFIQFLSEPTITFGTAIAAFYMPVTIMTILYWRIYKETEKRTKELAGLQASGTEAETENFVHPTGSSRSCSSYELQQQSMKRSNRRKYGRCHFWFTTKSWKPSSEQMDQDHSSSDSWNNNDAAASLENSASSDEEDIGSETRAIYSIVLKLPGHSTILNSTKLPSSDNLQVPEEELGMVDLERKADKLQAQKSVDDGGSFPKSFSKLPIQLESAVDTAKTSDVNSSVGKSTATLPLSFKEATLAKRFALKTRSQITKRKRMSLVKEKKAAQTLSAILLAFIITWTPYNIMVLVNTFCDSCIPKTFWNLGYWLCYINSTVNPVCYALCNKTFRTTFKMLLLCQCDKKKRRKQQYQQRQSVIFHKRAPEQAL

A word on the EC50: it is the midpoint of the concentration-response curve. Read a low EC50 as higher potency in that assay. What is called Ki is the equilibrium dissociation constant of an inhibitor or competing ligand from its target. For `CN(CCCCC(=O)Nc1ccc(CNC[C@H](O)c2ccc(O)c3[nH]c(=O)ccc23)cc1)C(=O)CCN1CCC(OC(=O)Nc2ccccc2-c2ccccc2)CC1` [Compound I-14, Biphenyl-2-ylcarbamic Acid 1-(2-{[4-(4-{[(R)-2-hydroxy-2-(8-hydroxy-2-oxo-1,2-dihydroquinolin-5-yl)ethylamino]methyl}phenylcarbamoyl)-butyl]methylcarbamoyl}ethyl)piperidin-4-yl Ester Ditrifluoroacetic Acid Salt], at hβ2 adrenergic receptor, the EC50 worked out at 1 nM. This compound also registered a Ki at hM3 muscarinic receptor of 0.1 nM. Further, the inhibition in vivo at 0.1 mg in experiment [1] (Rattus norvegicus, 24 h) is over 30%.

Turning to `Cc1cc(CNC[C@H](O)c2ccc(O)c3[nH]c(=O)ccc23)ccc1NC(=O)CCCCN(C)C(=O)CCN1CCC(OC(=O)Nc2ccccc2-c2ccccc2)CC1` [Compound I-15], on hβ2 adrenergic receptor, the EC50 was 1 nM. This compound showed a Ki at hM3 muscarinic receptor of 0.1 nM. Moreover, in experiment [1] (setting [2]), the inhibition in vivo at 0.1 mg is over 30%.

Take `COc1cc(CNC[C@H](O)c2ccc(O)c3[nH]c(=O)ccc23)ccc1NC(=O)CCCCN(C)C(=O)CCN1CCC(OC(=O)Nc2ccccc2-c2ccccc2)CC1` [Compound I-16]: the EC50 at hβ2 adrenergic receptor stood at 1 nM. The same compound had a Ki on hM3 muscarinic receptor of 0.1 nM. Moreover, the inhibition in vivo at 0.1 mg in experiment [1] (setting [2]) is over 30%.

At hβ2 adrenergic receptor, `COc1cc(NC(=O)CCCCN(C)C(=O)CCN2CCC(OC(=O)Nc3ccccc3-c3ccccc3)CC2)ccc1CNC[C@H](O)c1ccc(O)c2[nH]c(=O)ccc12` [Compound I-17] yielded an EC50 of 1 nM. The Ki on hM3 muscarinic receptor was 0.1 nM. Besides, in experiment [1] (setting [2]), the inhibition in vivo at 0.1 mg is over 30%.

In the case of `Cc1cc(NC(=O)CCCCN(C)C(=O)CCN2CCC(OC(=O)Nc3ccccc3-c3ccccc3)CC2)c(C)cc1CNC[C@H](O)c1ccc(O)c2[nH]c(=O)ccc12` [Compound I-18, Biphenyl-2-ylcarbamic Acid 1-(2-{[4-(4-{[(R)-2-Hydroxy-2-(8-hydroxy-2-oxo-1,2-dihydroquinolin-5-yl)ethylamino]methyl}-2,5-dimethylphenylcarbamoyl)butyl]methylcarbamoyl}ethyl)piperidin-4-yl Ester Ditrifluoroacetic Acid Salt], the EC50 at hβ2 adrenergic receptor came out at 1 nM. The affinity on hM3 muscarinic receptor, expressed as Ki, was 0.1 nM. In addition, the inhibition in vivo at 0.1 mg in experiment [1] (Rattus norvegicus, 24 h) is over 30%.

In turn, `COc1cc(NC(=O)CCCCN(C)C(=O)CCN2CCC(OC(=O)Nc3ccccc3-c3ccccc3)CC2)c(Cl)cc1CNC[C@H](O)c1ccc(O)c2[nH]c(=O)ccc12` [Compound I-19] returned an EC50 at hβ2 adrenergic receptor of 1 nM. This compound also displayed a Ki at hM3 muscarinic receptor of 0.1 nM. The inhibition in vivo at 0.1 mg in experiment [1] (setting [2]) is over 30%.

Compound `CN(CCCCC(=O)Nc1cccc(CCNC[C@H](O)c2ccc(O)c3[nH]c(=O)ccc23)c1)C(=O)CCN1CCC(OC(=O)Nc2ccccc2-c2ccccc2)CC1` [Compound I-20] returned an EC50 at hβ2 adrenergic receptor of 1 nM. The compound also yielded a Ki at hM3 muscarinic receptor of 0.1 nM. Further, the inhibition in vivo at 0.1 mg in experiment [1] (setting [2]) was over 30%.

As to `CN(CCCCC(=O)Nc1ccc(CCNC[C@H](O)c2ccc(O)c3[nH]c(=O)ccc23)cc1)C(=O)CCN1CCC(OC(=O)Nc2ccccc2-c2ccccc2)CC1` [Compound I-21], the response at hβ2 adrenergic receptor was half-maximal at 1 nM (EC50). The affinity on hM3 muscarinic receptor, expressed as Ki, was 0.1 nM. Moreover, in experiment [1] (setting [2]), the inhibition in vivo at 0.1 mg is over 30%.

On hβ2 adrenergic receptor, `CC(Cc1cccc(CC(=O)NCCCCN(C)C(=O)CCN2CCC(OC(=O)Nc3ccccc3-c3ccccc3)CC2)c1)NC[C@H](O)c1ccc(O)c2[nH]c(=O)ccc12` (stereo partly drawn) [Compound I-22] yielded an EC50 of 1 nM. At hM3 muscarinic receptor, this compound yielded a Ki of 0.1 nM. The inhibition in vivo at 0.1 mg in experiment [1] (setting [2]) was over 30%.

`C[C@H](Cc1cccc(CC(=O)NCCCCN(C)C(=O)CCN2CCC(OC(=O)Nc3ccccc3-c3ccccc3)CC2)c1)NC[C@H](O)c1ccc(O)c2[nH]c(=O)ccc12` [Compound I-23]: at hβ2 adrenergic receptor, the EC50 is 1 nM. This compound came in with a Ki at hM3 muscarinic receptor of 0.1 nM. Besides, in experiment [1] (setting [2]), the inhibition in vivo at 0.1 mg was over 30%.

`C[C@@H](Cc1cccc(CC(=O)NCCCCN(C)C(=O)CCN2CCC(OC(=O)Nc3ccccc3-c3ccccc3)CC2)c1)NC[C@H](O)c1ccc(O)c2[nH]c(=O)ccc12` [Compound I-24] had an EC50 on hβ2 adrenergic receptor of 1 nM. Further, affinity on hM3 muscarinic receptor was put at a Ki of 0.1 nM. Moreover, the inhibition in vivo at 0.1 mg in experiment [1] (setting [2]) is over 30%.

On hβ2 adrenergic receptor, `Cc1ccc(C(=O)Nc2ccc(CNC[C@H](O)c3ccc(O)c4[nH]c(=O)ccc34)cc2)cc1N(C)C(=O)CCN1CCC(OC(=O)Nc2ccccc2-c2ccccc2)CC1` [Compound I-26] displayed an EC50 of 1 nM. Further, the affinity on hM3 muscarinic receptor corresponds to a Ki of 0.2 nM. In experiment [1] (setting [2]), the inhibition in vivo at 0.1 mg is over 30%.

With `Cc1cc(CNC[C@H](O)c2ccc(O)c3[nH]c(=O)ccc23)ccc1NC(=O)c1cccc(N(C)C(=O)CCN2CCC(OC(=O)Nc3ccccc3-c3ccccc3)CC2)c1` [Compound I-27], a half-maximal response on hβ2 adrenergic receptor (EC50) required 1 nM. On hM3 muscarinic receptor, this compound came in with a Ki of 0.1 nM. Moreover, in experiment [1] (setting [2]), the “Broncho. at 24 h” value is on record as “No”.

On hβ2 adrenergic receptor, `Cc1cc(CNC[C@H](O)c2ccc(O)c3[nH]c(=O)ccc23)ccc1NC(=O)c1ccc(C)c(N(C)C(=O)CCN2CCC(OC(=O)Nc3ccccc3-c3ccccc3)CC2)c1` [Compound I-28] showed an EC50 of 1 nM. In addition, the affinity at hM3 muscarinic receptor corresponds to a Ki of 0.2 nM. The “Broncho. at 24 h” value in experiment [1] (setting [2]) is on record as “No”.

`COc1cc(CNC[C@H](O)c2ccc(O)c3[nH]c(=O)ccc23)ccc1NC(=O)c1cccc(N(C)C(=O)CCN2CCC(OC(=O)Nc3ccccc3-c3ccccc3)CC2)c1` [Compound I-29]: a half-maximal effect on hβ2 adrenergic receptor (EC50) was put at 1 nM. This compound gave a Ki on hM3 muscarinic receptor (setting [3]) of 0.1 nM. Besides, the “Broncho. at 24 h” value in experiment [1] (setting [2]) was “No”.

Compound `Cc1cc(NC(=O)c2cccc(N(C)C(=O)CCN3CCC(OC(=O)Nc4ccccc4-c4ccccc4)CC3)c2)c(C)cc1CNC[C@H](O)c1ccc(O)c2[nH]c(=O)ccc12` [Compound I-30] displayed an EC50 at hβ2 adrenergic receptor of 1 nM. The compound further came in with a Ki on hM3 muscarinic receptor of 0.2 nM. The “Broncho. at 24 h” value in experiment [1] (setting [2]) is “No”.

At hβ2 adrenergic receptor, `COc1cc(NC(=O)c2cccc(N(C)C(=O)CCN3CCC(OC(=O)Nc4ccccc4-c4ccccc4)CC3)c2)c(Cl)cc1CNC[C@H](O)c1ccc(O)c2[nH]c(=O)ccc12` [Compound I-31] registered an EC50 of 1 nM. Affinity at hM3 muscarinic receptor (setting [3]) was put at a Ki of 0.2 nM. Besides, in experiment [1] (setting [2]), the inhibition in vivo at 0.1 mg is over 30%.

The values above are taken from patent US8551978B2 (Theravance, Inc., priority 2009, dated 2013).
